In patent publication EP4725941A1, “ARYLAMIDE DERIVATIVE HAVING ANTITUMOR ACTIVITY” (priority 2020, dated 2021) one finds IC50 and microsomal CLint data, which are given here for 17 compounds.

The target of data set [1] is T1, MEK1 (Homo sapiens, UniProt Q02750).
T1 construct: purchased Thermo Fisher Scientific Inc. (MEK1, CRAF); Carna Biosciences, Inc. (ERK2)
In words: MEK1-inhibiting activity, fluorescent polarization method (CRAF/MEK1/ERK2 cascade, IMAP). Particulars: Table 3. In kind it is biochemical.

In data set [2] the target is T2, BRAF (Homo sapiens, UniProt P15056).
T2 construct: purchased Eurofins Genomics KK; (BRAF); Thermo Fisher Scientific Inc. (MEK1)
The experiment in a line: BRAF-inhibiting activity, time-resolved fluorescence-fluorescence resonance energy transfer assay. In kind it is biochemical. Here is the method: The BRAF-inhibiting activity of the compounds listed in Table 3 below was evaluated by the time-resolved fluorescence-fluorescence resonance energy transfer assay as described below.

Data set [3] is described as follows: Human liver microsome stability. In kind it is in vitro ADME. Particulars: human liver microsomes, pH 7.4. A general note: Microsomes from liver hold many membrane-bound enzymes, among them those of drug oxidation.
The subject of data set [4] is A549. In words: Cell proliferation-inhibiting activity (ATP in viable cells, CellTiter-Glo), A549. The conditions noted are these: A549, 96 h; human lung cancer cells, 4 days; read-out: A549 IC50. In kind it is cell-based, human.
In data set [5] the test system is NCI-H2122. The experiment in a line: Cell proliferation-inhibiting activity (ATP in viable cells, CellTiter-Glo), NCI-H2122. The format is cell-based, human. The conditions noted are these: NCI-H2122, 96 h; human lung cancer cells, 4 days; read-out: NCI-H2122 IC50. (In general: ATP-based viability assays read luminescence as a measure of living cells.)
Data set [6] addresses T1, MEK1. The experiment in a line: MEK1-inhibiting activity, fluorescent polarization method (CRAF/MEK1/ERK2 cascade, IMAP). In kind it is biochemical. The conditions noted are these: Table 3; read-out: MEK1 IC50. Here is the method:
The MEK1-inhibiting activity of the compounds listed in Table 3 below were evaluated by the fluorescent polarization method as described below.

Data set [7] concerns Calu-6. The experiment in a line: Cell proliferation-inhibiting activity (ATP in viable cells, CellTiter-Glo), Calu-6. In kind it is cell-based, human. Particulars: Calu-6, 96 h; human lung cancer cells, 4 days; read-out: Calu-6 IC50.

Structures are written as SMILES. pIC50: −log10 of the molar value. Read-outs that look alike come from different tables or passages of the source.

T1 sequence (Q02750 whole entry): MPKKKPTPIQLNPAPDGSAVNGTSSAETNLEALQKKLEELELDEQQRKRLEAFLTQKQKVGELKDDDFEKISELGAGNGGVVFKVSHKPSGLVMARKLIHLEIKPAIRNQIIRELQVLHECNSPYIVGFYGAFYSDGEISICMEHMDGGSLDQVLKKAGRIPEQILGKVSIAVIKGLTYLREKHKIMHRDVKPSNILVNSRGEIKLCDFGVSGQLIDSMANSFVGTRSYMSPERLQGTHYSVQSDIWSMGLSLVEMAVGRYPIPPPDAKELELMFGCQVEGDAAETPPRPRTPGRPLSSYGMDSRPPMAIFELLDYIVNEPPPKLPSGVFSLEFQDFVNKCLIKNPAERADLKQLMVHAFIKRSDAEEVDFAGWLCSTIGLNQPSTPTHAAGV
T2 sequence (P15056 417-766 limits assumed): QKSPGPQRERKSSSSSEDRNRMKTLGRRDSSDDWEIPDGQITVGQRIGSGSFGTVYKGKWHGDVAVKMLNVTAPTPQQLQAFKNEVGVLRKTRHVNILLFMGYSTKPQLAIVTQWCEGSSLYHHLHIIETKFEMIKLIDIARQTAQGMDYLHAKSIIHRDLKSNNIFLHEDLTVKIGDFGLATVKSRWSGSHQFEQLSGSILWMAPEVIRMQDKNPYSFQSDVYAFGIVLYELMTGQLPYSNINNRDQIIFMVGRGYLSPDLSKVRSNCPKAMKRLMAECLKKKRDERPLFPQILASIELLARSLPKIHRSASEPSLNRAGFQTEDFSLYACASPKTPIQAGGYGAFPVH

As for `CNS(C)(=O)=Nc1nccc(Cc2cc(C(N)=O)c(Nc3ccc(I)cc3F)c(F)c2F)c1F` (centres unmarked) [Compound A-43, 3,4-Difluoro-2-(2-fluoro-4-iodoanilino)-5-[[3-fluoro-2-[[methyl-(methylamino)-oxo-λ6-sulfanylidene]amino]pyridin-4-yl]methyl]benzamide], the pIC50 in data set [1] is 7.39; in data set [2] (Table 3; read-out: BRAF IC50), 8.00; in data set [4] it was 8.70; in data set [5], 7.89. In addition, in data set [3], the microsomal CLint at 0.99 µM was found to be 37 µL/min/mg.
`CNS(=O)(=O)Nc1nccc(Cc2cc(C(N)=O)c(Nc3ccc4sccc4c3F)c(F)c2F)c1F` [Compound H-3, 3,4-difluoro-2-[(4-fluoro-1-benzothiophen-5-yl)amino]-5-[[3-fluoro-2-(methylsulfamoylamino)pyridin-4-yl]methyl]benzamide]: the pIC50 in data set [1] was 8.70; in data set [2] (Table 3; read-out: BRAF IC50), 8.40. In data set [3], this compound registered a microsomal CLint at 0.99 µM of 149 µL/min/mg.
For `Cn1c(Nc2ccc(I)cc2F)c(C(=O)NOC(C)(C)C)cc(Cc2ccnc(NS(=O)(=O)NC3CC3)c2F)c1=O` [Compound J-11, 5-[[2-(Cyclopropylsulfamoylamino)-3-fluoropyridin-4-yl]methyl]-2-(2-fluoro-4-iodoanilino)-1-methyl-N-[(2-methylpropan-2-yl)oxy]-6-oxopyr idine-3-carboxamide], the pIC50 in data set [2] (read-out: BRAF IC50; Table 3) is 7.77; in data set [6] it was 7.32; in data set [4], 7.89; in data set [7], 7.57; in data set [5], 8.22. This compound had a microsomal CLint at 0.99 µM in data set [3] of 47 µL/min/mg.
With `CNS(=O)(=O)Nc1cccc(Cc2cc(C(N)=O)c(Nc3ccc(I)cc3F)n(C)c2=O)c1F` [Compound K-1, 2-(2-Fluoro-4-iodoanilino)-5-[[2-fluoro-3-(methylsulfamoylamino)phenyl]methyl]-1-methyl-6-oxopyridine-3-carboxamide], the pIC50 in data set [2] (read-out: BRAF IC50; Table 3) was 8.52; in data set [6], 7.26; in data set [4], 8.52; in data set [7], 7.85; in data set [5], 8.40. The same compound returned a microsomal CLint at 0.99 µM in data set [3] of 97 µL/min/mg.
Take `CCNS(=O)(=O)Nc1cccc(Cc2cc(C(N)=O)c(Nc3ccc(I)cc3F)n(C)c2=O)c1F` [Compound K-2, 5-[13-(Ethylsulfamoylamino)-2-fluorophenyl|methyl]-2-(2-fluoro-4-iodoanilino)-1-methyl-6-oxopyridine-3-carboxamide]: the pIC50 in data set [2] (read-out: BRAF IC50; Table 3) was 8.40; in data set [6] it was 7.14; in data set [4] it was 8.22; in data set [7], 7.57; in data set [5], 8.22. The microsomal CLint at 0.99 µM in data set [3] came out at 234 µL/min/mg.
For `Cn1c(Nc2ccc(I)cc2F)c(C(N)=O)cc(Cc2cccc(NS(=O)(=O)NC3CC3)c2F)c1=O` [Compound K-3, 5-[[3-(Cyclopropylsulfamoylamino)-2-fluorophenyl]methyl]-2-(2-fluor o-4-iodoanilino)-1-methyl-6-oxopyridine-3-carboxamide], the pIC50 in data set [2] (read-out: BRAF IC50; Table 3) is 8.30; in data set [6], 7.08; in data set [4] it was 8.05; in data set [7] it was 7.51; in data set [5], 8.00. Besides, the microsomal CLint at 0.99 µM in data set [3] stood at 247 µL/min/mg.
For `CNS(=O)(=O)Nc1cccc(Cc2cc(C(=O)NC3CC3)c(Nc3ccc(I)cc3F)n(C)c2=O)c1F` [Compound K-4, N-Cyclopropyl-2-(2-fluoro-4-iodoanilino)-5-[[2-fluoro-3-(methylsulfamoylamino)phenyl]methyl]-1-methyl-6-oxopyridine-3-carboxamide], the pIC50 in data set [2] (read-out: BRAF IC50; Table 3) is 7.96; in data set [6], 6.97; in data set [4], 8.22; in data set [7], 7.60; in data set [5] it was 8.30. For the same compound, in data set [3], the intrinsic metabolic clearance (microsomal CLint) at 0.99 µM amounted to 129 µL/min/mg.
As for `Cn1c(Nc2ccc(I)cc2F)c(C(=O)NC2CC2)cc(Cc2cccc(NS(=O)(=O)NC3CC3)c2F)c1=O` [Compound K-5, N-Cyclopropyl-5-[[3-(cyclopropylsulfamoylamino)-2-fluorophenyl]methyl]-2-(2-fluoro-4-iodoanilino)-1-methyl-6-oxopyridine-3-carboxamide], the pIC50 is 8.05 in data set [2] (read-out: BRAF IC50; Table 3); 6.86 in data set [6]; 7.60 in data set [4]; 6.96 in data set [7]; 7.64 in data set [5]. This compound had a microsomal CLint at 0.99 µM in data set [3] of 245 µL/min/mg.
As to `Cn1c(Nc2ccc(I)cc2F)c(C(N)=O)cc(Cc2cccc(NS(=O)(=O)C3(C)CC3)c2F)c1=O` [Compound K-6, 2-(2-Fluoro-4-iodoanilino)-5-[[2-fluoro-3-[(1-methylcyclopropyl)sulfonylamino]phenyl]methyl]-1-methyl-6-oxopyridine-3-carboxamide], the pIC50 is 7.82 in data set [2] (read-out: BRAF IC50; Table 3); 6.64 in data set [6]; 7.60 in data set [4]; 7.08 in data set [7]; 7.68 in data set [5]. The same compound displayed a microsomal CLint at 0.99 µM in data set [3] of 499 µL/min/mg.
With `CONC(=O)c1cc(Cc2cccc(NS(=O)(=O)C3(C)CC3)c2F)c(=O)n(C)c1Nc1ccc(I)cc1F` [Compound K-7, 2-(2-Fluoro-4-iodoanilino)-5-[[2-fluoro-3-[(1-methylcyclopropyl)sulfonylamino]phenyl]methyl]-N-methoxy-1-methyl-6-oxopyridine-3-carboxamide], the negative-log IC50 (pIC50) in data set [2] (read-out: BRAF IC50; Table 3) is 7.85; in data set [6] it was 7.51; in data set [4] it was 8.05; in data set [7] it was 7.57; in data set [5], 8.15. For the same compound, in data set [3], the microsomal CLint at 0.99 µM amounted to 357 µL/min/mg.
In the case of `CCS(=O)(=O)Nc1cccc(Cc2cc(C(N)=O)c(Nc3ccc(I)cc3F)n(C)c2=O)c1F` [Compound K-10, 5-[[3-(Ethylsulfonylamino)-2-fluorophenyl]methyl]-2-(2-fluoro-4-iodoanilino)-1-methyl-6-oxopyridine-3-carboxamide], the pIC50 was 8.10 in data set [2] (read-out: BRAF IC50; Table 3); 6.89 in data set [6]; 7.60 in data set [4]; 7.09 in data set [7]; 7.80 in data set [5]. In addition, the microsomal CLint at 0.99 µM in data set [3] was found to be 69 µL/min/mg.
Turning to `Cn1c(Nc2ccc(I)cc2F)c(C(=O)NC2CC2)cc(Cc2cccc(NS(=O)(=O)C3(C)CC3)c2F)c1=O` [Compound K-11, N-Cyclopropyl-2-(2-fluoro-4-iodoanilino)-5-[[2-fluoro-3-[(1-methylcyclopropyl)sulfonylamino]phenyl]methyl]-I-methyl-6-oxopyridine-3-carb oxamide], the pIC50 is 7.82 in data set [2] (read-out: BRAF IC50; Table 3); 6.56 in data set [6]; 7.03 in data set [4]; 6.64 in data set [7]; 7.07 in data set [5]. The same compound gave a microsomal CLint at 0.99 µM in data set [3] of 437 µL/min/mg.
`Cn1c(Nc2ccc(I)cc2F)c(C(=O)NOC(C)(C)C)cc(Cc2cccc(NS(=O)(=O)C3(C)CC3)c2F)c1=O` [Compound K-12, 2-(2-Fluoro-4-iodoanilino)-5-[2-fluoro-3-[(1-methylcyclopropyl)sulfonylamino]phenyl]methyl]-1-methyl-N-[(2-methylpropan-2-yl)oxyl-6-oxo pyridine-3-carboxamide]: the pIC50 in data set [2] (read-out: BRAF IC50; Table 3) is 7.85; in data set [6], 8.00; in data set [4] it was 8.15; in data set [7], 7.57; in data set [5], 8.22. In data set [3], the intrinsic clearance (microsomal CLint) at 0.99 µM was 546 µL/min/mg.
As to `CCNS(=O)(=O)Nc1cccc(Cc2cc(C(=O)NC3CC3)c(Nc3ccc(I)cc3F)n(C)c2=O)c1F` [Compound K-13, N-Cyclopropyl-5-[[3-(ethylsulfamoylamino)-2-fluorophenyl]methyl]-2-(2-fluoro-4-iodoanilino)-1-methyl-6-oxopyridine-3-carboxamide], the pIC50 in data set [2] (read-out: BRAF IC50; Table 3) was 8.05; in data set [6], 6.94; in data set [4], 7.74; in data set [7], 7.28; in data set [5], 7.89. Besides, the microsomal CLint at 0.99 µM in data set [3] was found to be 321 µL/min/mg.
For `CNS(=O)(=O)Nc1nccc(Cc2cc(C(N)=O)c(Nc3ccc(I)cc3F)n3cncc23)c1F` [Compound M-1, 5-(2-Fluoro-4-iodoanilino)-8-[[3-fluoro-2-(methylsulfamoylamino)pyridin-4-yl]methyl]imidazo[1,5-a]pyridine-6-carboxamide], the pIC50 in data set [2] (read-out: BRAF IC50; Table 3) is 8.40; in data set [6], 8.30; in data set [4], 7.57; in data set [7], 7.55; in data set [5] it was 7.89. For the same compound, the microsomal CLint at 0.99 µM in data set [3] was 59 µL/min/mg.
Consider `CNS(=O)(=O)Nc1cccc(Oc2cc(F)cc(Nc3ccc(I)cc3F)c2C(N)=O)c1` [Ref-2, 4-Fluoro-2-(2-fluoro-4-iodoanilino)-6-[3-(methylsulfamoylamino)phenoxy]benzamide, reference compound], for which the pIC50 in data set [2] (read-out: BRAF IC50; Table 3) is 7.92; in data set [6], 6.44; in data set [4] it was 8.10; in data set [7], 7.46; in data set [5], 8.52. In addition, the microsomal CLint at 0.99 µM in data set [3] is 12 µL/min/mg.
`CC(C)S(=O)(=O)Nc1cccc(Oc2cncc(Nc3ccc(I)cc3F)c2C(N)=O)c1` [Ref-3, 3-(2-Fluoro-4-iodoanilino)-5-[3-(propan-2-ylsulfonylamino)phenoxy]py ridine-4-carboxamide, reference compound]: the pIC50 is 7.92 in data set [2] (read-out: BRAF IC50; Table 3); 8.30 in data set [6]; 8.70 in data set [4]; 8.00 in data set [7]; 9.00 in data set [5]. The compound further registered a microsomal CLint at 0.99 µM in data set [3] of 11 µL/min/mg.

By pIC50 is commonly meant the negative decadic logarithm of the IC50, by convention in mol/L. A word on the microsomal CLint: it is the capacity of the preparation to metabolise the compound, expressed as a volume cleared per time. Low readings indicate slow turnover, high ones rapid turnover.
